Substitutions are numbered along the chain they refer to. Where two headings read alike, the source gives them in different places.
How the values were obtained:
Format in all cases: cell-based
OR5A2_variant 1 [1] = target: T1, OR5A2_variant 1 (Homo sapiens, UniProt Q8NGI9); assay: Luciferase reporter concentration-response analysis on OR5A2_variant 1; conditions: for activation of OR5A2 (OR5A2_variant 1), concentration-response: CRE-luciferase, semi-logarithmic serial dilutions, empty vector pEFIBRHO as control
T1 construct: expressed in transfected cells; host or cells: HEK293T-RTP1A1/RTP2
T1 sequence (Q8NGI9 1-324): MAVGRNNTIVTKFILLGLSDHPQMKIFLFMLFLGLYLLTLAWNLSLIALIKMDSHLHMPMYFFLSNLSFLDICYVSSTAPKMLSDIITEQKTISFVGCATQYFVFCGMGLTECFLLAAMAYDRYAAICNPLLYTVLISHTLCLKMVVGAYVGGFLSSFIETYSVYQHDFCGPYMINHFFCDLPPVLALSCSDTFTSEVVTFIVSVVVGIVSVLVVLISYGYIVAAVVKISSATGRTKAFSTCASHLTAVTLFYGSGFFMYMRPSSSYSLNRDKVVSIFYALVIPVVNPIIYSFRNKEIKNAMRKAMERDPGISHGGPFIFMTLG
Description: (§1) HEK293T-RTP1A1/RTP2 cells were maintained in minimal essential medium (EMEM, Lonza) containing 10% fetal bovine serum (M10). These cells were generated by transfecting HEK293T with an expression vector containing the sequences of the chaperone proteins RTP1A1 and RTP2 and a resistance gene to puromycin, using Lipofectamine 2000.
(§2) Odorant molecules were diluted at a concentration of 1 mole/liter (M) into dimethyl sulfoxide (DMSO) to generate stock solutions.
(§3) For concentration-response analysis, serial dilutions of the tested molecules were prepared from stock solutions in EMEM plated into 96-well plates.
(§4) For the initial deorphanisation screening and dose-response analysis, a Luciferase-based gene reporter assay (Promega, Leiden, The Nederlands) was used. Briefly, cells were platted on Poly-D-lysine-coated 96-well and transfected with a plasmid containing the CRE-luciferase and a plasmid containing the olfactory receptor. Sixteen hours after transfection, the culture medium was replaced by serum-free EMEM containing the tested compounds at a determined concentration. After four hours of incubation at 37° C. degree, cells were lysed and processed for luminescence measurement. Luminescene emission was recorded. Results were expressed as luciferase activity (Relative […] Unit (RLU)) or as percentage of the response induced by 10 μM of the adenylate cyclase activator Forskolin. An empty plasmid is used as negative control.
(§5) 35 musk compounds from the four structurally different chemical groups previously described were tested in concentration-response analyses (Table 2). In each experiment, an empty vector was used as negative control (pEFIBRHO). […] Full results including the calculated EC50 are given in Table 2; “non active” represent negative experiments, no activation after testing.

OR11A1 = target: T2, OR11A1 (Homo sapiens, UniProt Q9GZK7); assay: Luciferase reporter concentration-response analysis on OR11A1
T2 construct: expressed in transfected cells; host or cells: HEK293T-RTP1A1/RTP2
T2 sequence (Q9GZK7 1-315): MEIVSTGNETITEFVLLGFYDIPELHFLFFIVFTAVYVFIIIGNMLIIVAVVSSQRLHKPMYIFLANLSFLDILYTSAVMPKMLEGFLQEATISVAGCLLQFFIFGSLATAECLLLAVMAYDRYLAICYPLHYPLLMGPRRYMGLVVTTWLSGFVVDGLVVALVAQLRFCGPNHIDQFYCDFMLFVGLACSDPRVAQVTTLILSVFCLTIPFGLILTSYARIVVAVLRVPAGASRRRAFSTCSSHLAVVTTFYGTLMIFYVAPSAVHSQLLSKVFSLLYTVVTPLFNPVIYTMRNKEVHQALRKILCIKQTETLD
Description: as §1, §2, §3, §4, §5
These compounds were tested in concentration-response analysis in luciferase assays, as described previously. In each experiment, an empty vector was used as negative control (pEFIBRHO).

chimeric OR5A2_variant 1 = target: T3, chimeric OR5A2_variant 1 (Homo sapiens, UniProt Q8NGI9, F293L/H55R/I289L/M58T); assay: Luciferase reporter concentration-response analysis on chimeric OR5A2_variant 1; conditions: CRE-luciferase, empty vector pEFIBRHO as control
T3 construct: expressed in transfected cells; host or cells: HEK293T-RTP1A1/RTP2
T3 sequence (Q8NGI9 with tags, fused parts or gaps H55R/M58T/I289L/F293L): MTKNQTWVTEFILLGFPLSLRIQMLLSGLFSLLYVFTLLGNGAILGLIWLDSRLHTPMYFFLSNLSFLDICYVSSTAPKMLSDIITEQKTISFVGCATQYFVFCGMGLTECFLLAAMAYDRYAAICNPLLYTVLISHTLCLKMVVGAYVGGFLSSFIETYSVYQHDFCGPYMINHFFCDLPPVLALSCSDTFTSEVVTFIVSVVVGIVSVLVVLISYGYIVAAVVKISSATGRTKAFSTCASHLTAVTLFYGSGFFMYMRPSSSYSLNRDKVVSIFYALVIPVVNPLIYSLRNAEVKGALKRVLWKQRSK
Description: as §1, §2, §3, §4
(§6) To test if the amino acids substitution could impact the musk sensitivity, and specificity and to validate the Krautwurst's model, luciferase assays were performed as described previously after transfection of the chimeric OR5A2_variant 1. Cells were treated with semi-logarithmic serial dilutions of musk compounds from the four structurally different groups described earlier.
In each experiment, an empty vector was used as negative control (pEFIBRHO).

OR5A2_variant 2 = target: T4, OR5A2_variant 2 (Homo sapiens, UniProt Q8NGI9, P172L); assay: Luciferase reporter concentration-response analysis on haplotype OR5A2_variant 2 (P172L); conditions: CRE-luciferase; empty vector pEFIBRHO as control
T4 construct: (P172L, OR5A2_variant 2); expressed in transfected cells; host or cells: HEK293T-RTP1A1/RTP2
T4 sequence (Q8NGI9 1-324 P172L): T1 sequence (Q8NGI9 1-324) with P172L
Description: as §1, §2, §3, §4
OR genes are highly variable, with many alleles resulting in differences in smell perception from person to person. These differences can be attributed to genetic variations like, for example, nucleotide polymorphisms. […] Amino acids alignment of the 2 haplotypes are represented in FIG. 4.
To test if the substitution could impact the musk sensitivity, luciferase assays were performed as described previously after transfection of both OR5A2 variants. Cells were treated with semi-logarithmic serial dilutions of musk compounds from the four structurally different groups described earlier. In each experiment, an empty vector was used as negative control (pEFIBRHO).

OR2A5 = target: T5, OR2A5 (Homo sapiens, UniProt Q96R48, A202S/A255T/I126V); assay: Luciferase reporter concentration-response analysis on OR2A5; conditions: CRE-luciferase
T5 construct: expressed in transfected cells; host or cells: HEK293T-RTP1A1/RTP2
T5 sequence (Q96R48 1-311 I126V/A202S/A255T): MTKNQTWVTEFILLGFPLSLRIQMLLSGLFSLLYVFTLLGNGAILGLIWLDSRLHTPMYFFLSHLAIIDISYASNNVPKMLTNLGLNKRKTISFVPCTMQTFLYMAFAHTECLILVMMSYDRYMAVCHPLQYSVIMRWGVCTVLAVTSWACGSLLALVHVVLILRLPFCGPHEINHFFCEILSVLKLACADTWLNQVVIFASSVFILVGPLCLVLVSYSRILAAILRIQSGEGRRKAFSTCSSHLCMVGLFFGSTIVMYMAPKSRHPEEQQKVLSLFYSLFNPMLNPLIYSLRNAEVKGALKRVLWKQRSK
Description: as §1, with “2000. The recombinant cell population, used in these experiments, was selected by adding 10 μg/ml of puromycin into the culture medium and subsequently subcloned (WO 2014/191047 A1).” for “2000.”
as §2, §3, §4
In 1998, Krautwurst and collaborators have provided a model system for the study of ligand specificity and structure-function relationships for olfactory receptors (Krautwurst et al., 1998 Cell 95, 917-26). […] Based on their publication, a chimeric OR5A2_variant 1 olfactory receptor was created containing the TM2-TM7 amino acid sequence of OR5A2_variant 1 flanked by the N-teminal and C-terminal sequence of the olfactory receptor OR2A5 (cf. SEQ ID NO: 12). This chimeric OR5A2_variant 1 receptor shared 86 percent identity with the native OR5A2_variant 1 receptor (FIG. 6A and SEQ ID NO: 10).
as §6

OR5A1 = target: T6, OR5A1 (Homo sapiens, UniProt Q8NGJ0); assay: Luciferase reporter concentration-response analysis on OR5A1; conditions: CRE-luciferase; empty vector pEFIBRHO as control
T6 construct: expressed in transfected cells; host or cells: HEK293T-RTP1A1/RTP2
T6 sequence (Q8NGJ0 1-315): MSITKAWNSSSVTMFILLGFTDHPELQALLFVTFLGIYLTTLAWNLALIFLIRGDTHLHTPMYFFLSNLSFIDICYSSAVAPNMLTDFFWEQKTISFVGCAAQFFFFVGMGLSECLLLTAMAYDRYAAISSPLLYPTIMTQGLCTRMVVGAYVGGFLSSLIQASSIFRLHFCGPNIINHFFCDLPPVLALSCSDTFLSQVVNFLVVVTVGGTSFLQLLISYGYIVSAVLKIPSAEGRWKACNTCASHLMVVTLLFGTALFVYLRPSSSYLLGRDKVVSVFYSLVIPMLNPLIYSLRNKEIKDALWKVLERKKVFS
Description: as §1, with “2000. The recombinant cell population, used in these experiments, was selected by adding 10 μg/ml of puromycin into the culture medium and subsequently subcloned (WO 2014/191047 A1).” for “2000.”
as §2, §3
as §4, with “Briefly, cells were platted on Poly-D-lysine-coated 96-well and transfected with a plasmid containing the CRE-luciferase and a plasmid containing the olfactory receptor.” left out, “An empty plasmid is used as negative control.” left out

OR5AN1 = target: T7, OR5AN1 (Homo sapiens, UniProt Q8NGI8, E89G); assay: Luciferase reporter concentration-response analysis on OR5AN1
T7 construct: expressed in transfected cells; host or cells: HEK293T-RTP1A1/RTP2
T7 sequence (Q8NGI8 1-311 E89G): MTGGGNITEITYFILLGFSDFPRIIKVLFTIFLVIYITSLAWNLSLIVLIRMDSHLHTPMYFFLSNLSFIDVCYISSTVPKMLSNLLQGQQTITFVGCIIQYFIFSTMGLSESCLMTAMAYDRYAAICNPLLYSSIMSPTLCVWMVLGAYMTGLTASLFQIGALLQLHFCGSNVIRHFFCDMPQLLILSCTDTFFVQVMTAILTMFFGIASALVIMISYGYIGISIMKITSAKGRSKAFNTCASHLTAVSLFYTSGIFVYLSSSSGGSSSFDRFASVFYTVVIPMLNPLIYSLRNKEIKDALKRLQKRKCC
Description: as §1, with “2000. The recombinant cell population, used in these experiments, was selected by adding 10 μg/ml of puromycin into the culture medium and subsequently subcloned (WO 2014/191047 A1).” for “2000.”
as §2, §3, §4
In these analyses we also included ORs previously described as musk-specific receptors OR5AN1 (SEQ ID n° 7) (WO 2015/020158 A1, Shirasu et al. 2014 Neuron 81, 165-78, Sato-Akuhara N et al. 2016 J Neurosci. 36(16), 4482-91) and OR11A1 (SEQ ID n° 8) (WO 2016/201152 A1). […] Therefore, OR5A1 was included in the analyses. 35 musk compounds from the four structurally different chemical groups previously described were tested in concentration-response analyses (Table 2). In each experiment, an empty vector was used as negative control (pEFIBRHO). […] Full results including the calculated EC50 are given in Table 2; “non active” represent negative experiments, no activation after testing. […]

OR5A2_variant 1 [2] = target: T1, OR5A2_variant 1; assay: Luciferase reporter deorphanisation screening of odorant libraries (891 compounds) on OR5A2; conditions: HEK293T-RTP1A1/RTP2 cells; each compound at 1 mM, 316 μM, 100 μM; hit = luciferase activity >= median + 2 standard deviations
Description: as §1, §2
For screening experiments, stock solutions of odorant molecules were diluted in EMEM disposed in 96-well plates.
as §4

[3] = concentration-response analysis, luciferase reporter, values given as negative (log) numbers, read-out: calculated EC50, OR5A2 (converted)
[4] = CRE-luciferase, empty vector pEFIBRHO as control

Compound | activation of OR5A2 (OR5A2_variant 1), concentration-response (OR5A2_variant 1 [1]) | EC50 (OR5A2_variant 1 [1]; [3]) [µM] | activation of chimeric OR5A2_variant 1, concentration-response (chimeric OR5A2_variant 1) | activation of OR5A2_variant 2 (P172L), concentration-response (OR5A2_variant 2) | activation of OR2A5, concentration-response (OR2A5) | response of the OR of the invention (luciferase activity, hit) in library screening (OR5A2_variant 1 [2]) | further results
CC1C(C)(C)C2=C(C(=O)CCC2)C1(C)C (stereo not shown) [Cashmeran] | shows dose response curves | 17.8 | shows dose response curves | not activated | but not the OR2A5 | – | EC50 (OR11A1; concentration-response analysis, luciferase reporter, values given as negative (log) numbers, Non Active = no activation after testing, read-out: calculated EC50, OR11A1 (converted)): 21.4 µM
CCC1(O)C2(C)CCC(C2)C1(C)C (stereo not shown) [2 ethyl-fenchol] | stimulated neither | – | not activated | – | – | – | activation of OR11A1, concentration-response (OR11A1; [4]): able to activate OR11A1 only; activation of chimeric OR5A2_variant 1, concentration-response (chimeric OR5A2_variant 1; listed as ethyl-fenchol): not able to activate; activation of OR5A1, concentration-response (OR5A1): able to activate OR11A1 only; activation of OR5AN1, concentration-response (OR5AN1; [4]): stimulated neither
CC(OC(C)(C)COC(=O)C1CC1)C1CCCC(C)(C)C1 (stereo not shown) [Serenolide] | shows dose response curves | – | shows dose response curves | not activated | but not the OR2A5 | respond specifically and exclusively | EC50 (OR5A2_variant 1 [1]): 21.9 µM
C[C@H]1CC(C)(C)C2=C(C[C@@]3(C)O[C@H]3C2)C1(C)C [malaxone] | – | – | – | – | – | respond specifically and exclusively | –
O=C1CCCCCCCCCCCC(=O)OCCO1 [Ethylene Brassylate] | – | 49 | – | – | – | respond specifically and exclusively | EC50 (OR5AN1; concentration-response analysis, luciferase reporter, values given as negative (log) numbers, Non Active = no activation after testing, read-out: calculated EC50, OR5AN1 (converted)): 66.1 µM
